The source made the active and inactive calls.
What was measured:
DNA topoisomerase = DNA topoisomerase (Yersinia pestis, UniProt A0A2S9PM60); experiment: Y. pestis Topo-I inhibitors, cleavage product readout, dose response, biochemical, cherry-pick (AID 588525)
[1] = target: T1, Mannose-6-phosphate isomerase (Homo sapiens, UniProt P34949); experiment: human PMI inhibitors, high substrate, primary screen, biochemical, fluorescence intensity, high mannose 6-phosphate (AID 1220)
T1 sequence (P34949 whole entry): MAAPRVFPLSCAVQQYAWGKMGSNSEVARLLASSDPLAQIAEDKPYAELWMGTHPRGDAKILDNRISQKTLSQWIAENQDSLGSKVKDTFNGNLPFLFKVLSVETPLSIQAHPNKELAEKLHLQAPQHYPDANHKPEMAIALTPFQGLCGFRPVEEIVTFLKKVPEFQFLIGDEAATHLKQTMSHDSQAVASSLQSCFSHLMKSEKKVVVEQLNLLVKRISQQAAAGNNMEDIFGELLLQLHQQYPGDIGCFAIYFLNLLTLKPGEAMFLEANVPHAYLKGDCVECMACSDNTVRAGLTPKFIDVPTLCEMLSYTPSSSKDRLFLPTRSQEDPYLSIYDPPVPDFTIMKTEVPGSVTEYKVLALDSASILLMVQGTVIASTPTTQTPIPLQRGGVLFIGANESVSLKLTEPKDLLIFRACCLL

[2] = target: T2, Replicative DNA helicase DnaB (Mycobacterium tuberculosis, UniProt P9WMR3); experiment: DnaB intein splicing inhibitors, dose response, biochemical, cell-free fluorescence (AID 449749); type: functional
T2 sequence (P9WMR3 whole entry): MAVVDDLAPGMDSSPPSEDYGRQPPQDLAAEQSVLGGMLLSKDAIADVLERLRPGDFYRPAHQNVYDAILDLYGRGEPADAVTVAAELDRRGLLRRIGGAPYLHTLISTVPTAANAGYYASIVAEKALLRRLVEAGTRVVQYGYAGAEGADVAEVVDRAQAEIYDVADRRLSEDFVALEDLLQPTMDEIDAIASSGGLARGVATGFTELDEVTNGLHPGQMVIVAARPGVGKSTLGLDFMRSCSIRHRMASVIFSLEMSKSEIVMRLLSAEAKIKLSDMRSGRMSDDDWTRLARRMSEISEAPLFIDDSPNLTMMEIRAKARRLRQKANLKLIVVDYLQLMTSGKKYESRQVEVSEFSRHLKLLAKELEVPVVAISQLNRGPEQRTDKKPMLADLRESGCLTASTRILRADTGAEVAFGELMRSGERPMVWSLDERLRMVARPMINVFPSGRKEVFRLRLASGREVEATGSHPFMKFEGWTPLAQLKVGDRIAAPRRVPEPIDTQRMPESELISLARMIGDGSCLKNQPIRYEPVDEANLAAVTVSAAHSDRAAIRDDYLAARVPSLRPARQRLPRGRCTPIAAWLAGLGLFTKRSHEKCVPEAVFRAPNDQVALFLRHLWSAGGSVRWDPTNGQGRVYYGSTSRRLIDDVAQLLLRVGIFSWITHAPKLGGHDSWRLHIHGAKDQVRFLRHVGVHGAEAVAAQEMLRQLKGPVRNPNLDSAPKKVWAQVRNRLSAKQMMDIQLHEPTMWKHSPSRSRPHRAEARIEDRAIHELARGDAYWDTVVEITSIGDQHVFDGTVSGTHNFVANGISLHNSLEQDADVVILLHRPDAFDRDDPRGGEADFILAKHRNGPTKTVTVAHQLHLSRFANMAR

[3] = target: ATP-dependent molecular chaperone HSP82 (Candida albicans (strain WO-1) (Yeast), UniProt C4YTQ8); experiment: loss of DOC-induced GRE-beta-galactosidase reporter signal, dose response, Hsp90 inhibitor project, S. cerevisiae, luminescence (AID 2400); type: functional, cell-based;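 also: beta-galactosidase luminescence from glucocorticoid response element reporter as proxy for Hsp90 function; inhibitor potency where signal loss means Hsp90 inhibition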
[4] = C. albicans growth with fluconazole, confirmation, fluorescence, retest (AID 2467); type: functional, cell-based
[5] = target: T3, Serine/threonine-protein phosphatase (Candida dubliniensis (strain CD36 / CBS 7987 / NCPF 3949 / NRRLY-17841) (Yeast), UniProt B9W6M3); experiment: calcineurin pathway inhibitors in yeast reporter, dose response, S. cerevisiae, CDRE-lacZ, luminescence, secondary (AID 2388); type: functional, cell-based;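 also: yeast reporter cells carrying a calcineurin-responsive lacZ construct stimulated with calcium chloride; luminescent beta-galactosidase reporter signal in whole cells rather than isolated phosphatase activity; potency for inhibition where a drop in reporter signal means calcineurin blockade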
T3 sequence (B9W6M3 whole entry): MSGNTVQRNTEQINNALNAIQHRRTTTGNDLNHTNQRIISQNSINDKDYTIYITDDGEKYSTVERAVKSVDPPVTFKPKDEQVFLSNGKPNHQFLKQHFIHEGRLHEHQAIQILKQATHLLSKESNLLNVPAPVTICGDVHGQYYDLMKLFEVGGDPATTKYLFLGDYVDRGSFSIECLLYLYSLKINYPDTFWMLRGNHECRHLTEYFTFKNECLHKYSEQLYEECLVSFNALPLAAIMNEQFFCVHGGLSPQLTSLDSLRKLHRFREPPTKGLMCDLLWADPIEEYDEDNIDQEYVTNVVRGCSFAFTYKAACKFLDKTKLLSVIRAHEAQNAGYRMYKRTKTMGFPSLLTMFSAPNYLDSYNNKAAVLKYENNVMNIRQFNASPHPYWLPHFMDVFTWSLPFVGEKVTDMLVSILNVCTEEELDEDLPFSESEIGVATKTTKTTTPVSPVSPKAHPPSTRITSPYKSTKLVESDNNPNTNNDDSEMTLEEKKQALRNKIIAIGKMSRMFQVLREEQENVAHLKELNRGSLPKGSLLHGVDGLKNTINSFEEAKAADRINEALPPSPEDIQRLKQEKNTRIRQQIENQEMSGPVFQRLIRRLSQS

[6] = target: Peroxisome proliferator-activated receptor gamma/Nuclear receptor coactivator 1 (Homo sapiens, UniProt P37231); experiment: TR-FRET dose response biochemical High Throughput Screening assay for agonists of the steroid receptor coactivator 1 (SRC-1) recruitment by the peroxisome proliferator-activated receptor gamma (PPAR gamma): non-selective agonists. [Related pubchem assays (depositor defined):AID1300, AID1808, AID504735, AID631]; type: protein assay
[7] = Luminescent dose response cell-based high throughput screening assay for inhibitors of the Janus kinase 2 mutant JAK2V617F. [Related pubchem assays: 1446 (Primary screen.), 1521 (Confirmation assay.), 1486 (Counter screen.)]; type: functional
INS1 = experiment: beta cell apoptosis inhibitors, cytokine rescue, dose response, luminescence, retest (AID 449756); type: functional, cell-based; settings: Rattus norvegicus;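 also: cell death triggered by IL-1 beta plus TNF-alpha plus IFN-gamma mixture; protective hits raise ATP signal compared with cytokine alone wells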
[8] = NIH-3T3 fibroblast cytotoxicity, dose response, cytotoxicity control, cell-based, fluorescence, Alamar Blue, secondary assay (AID 2327); type: functional;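 also: NIH-3T3 mouse fibroblasts cultured with fluconazole at 8 µg/mL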
[9] = growth suppression of beta-catenin-knockout colon cells, dose response, cell-based, HCT116, human colon tumor (AID 1045); type: functional;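 also: HCT116 colon tumor cells with beta catenin knocked out; cells exposed to compound for 60 hours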
[10] = growth suppression of PTEN-null colon cells, dose response, cell-based, HCT116 PTEN knockout (AID 1047); type: functional;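 also: HCT116 colon tumor cells with PTEN knocked out; cells exposed to compound for 60 hours before readout; potency for loss of cell viability measured by luminescence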
[11] = target: Peroxisome proliferator-activated receptor gamma/Nuclear receptor coactivator 2 (Homo sapiens, UniProt P37231); experiment: (§1) TR-FRET dose response biochemical High Throughput Screening assay for agonists of the steroid receptor coactivator 2 (SRC-2) recruitment by the peroxisome proliferator-activated receptor gamma (PPAR gamma): non-selective agonists. [Related pubchem assays: 1297, 1032 ]; type: functional
Vero = Vero cell cytotoxicity, cytotoxicity control for flavivirus capping enzyme inhibitors (AID 588742); type: functional; settings: Chlorocebus sabaeus
[12] = target: Peroxisome proliferator-activated receptor gamma/Nuclear receptor coactivator 3 (Homo sapiens, UniProt P37231); experiment: as §1, with “3 (SRC-3)” for “2 (SRC-2)”, “1301 (Confirmation screen.), 1048 (Primary screen.)]” for “1297, 1032 ]”; type: functional
Protein RecA = target: T4, Protein RecA (Mycobacterium tuberculosis, UniProt P9WHJ3); experiment: Fluorescence Cell-Free Homogeneous Dose Retest to Identify Inhibitors of RecA-Intein Splicing Activity. [Related pubchem assays (depositor defined):AID2097, AID2223, AID489010, AID492950]; type: functional
T4 sequence (P9WHJ3 whole entry): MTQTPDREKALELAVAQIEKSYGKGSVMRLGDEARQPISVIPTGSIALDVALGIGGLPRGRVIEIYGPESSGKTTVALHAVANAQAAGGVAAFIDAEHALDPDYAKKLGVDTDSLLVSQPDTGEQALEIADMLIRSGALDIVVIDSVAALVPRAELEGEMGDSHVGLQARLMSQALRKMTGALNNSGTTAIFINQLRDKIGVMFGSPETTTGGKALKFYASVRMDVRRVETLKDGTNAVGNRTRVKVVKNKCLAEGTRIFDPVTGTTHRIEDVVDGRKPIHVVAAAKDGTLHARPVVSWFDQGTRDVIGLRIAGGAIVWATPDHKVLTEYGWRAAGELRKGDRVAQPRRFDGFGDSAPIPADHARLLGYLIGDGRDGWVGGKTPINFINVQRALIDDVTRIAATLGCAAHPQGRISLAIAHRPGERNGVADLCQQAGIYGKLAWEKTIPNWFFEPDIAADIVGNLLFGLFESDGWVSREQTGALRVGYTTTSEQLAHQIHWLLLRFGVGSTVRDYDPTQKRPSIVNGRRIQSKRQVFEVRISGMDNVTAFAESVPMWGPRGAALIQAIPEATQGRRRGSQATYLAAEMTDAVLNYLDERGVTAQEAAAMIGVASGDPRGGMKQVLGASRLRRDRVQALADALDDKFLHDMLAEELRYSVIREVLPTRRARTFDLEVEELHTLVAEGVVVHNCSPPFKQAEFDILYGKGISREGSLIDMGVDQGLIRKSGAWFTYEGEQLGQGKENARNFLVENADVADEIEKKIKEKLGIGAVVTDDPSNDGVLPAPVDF

Sequence of Peroxisome proliferator-activated receptor gamma/Nuclear receptor coactivator 2 (P37231 whole entry): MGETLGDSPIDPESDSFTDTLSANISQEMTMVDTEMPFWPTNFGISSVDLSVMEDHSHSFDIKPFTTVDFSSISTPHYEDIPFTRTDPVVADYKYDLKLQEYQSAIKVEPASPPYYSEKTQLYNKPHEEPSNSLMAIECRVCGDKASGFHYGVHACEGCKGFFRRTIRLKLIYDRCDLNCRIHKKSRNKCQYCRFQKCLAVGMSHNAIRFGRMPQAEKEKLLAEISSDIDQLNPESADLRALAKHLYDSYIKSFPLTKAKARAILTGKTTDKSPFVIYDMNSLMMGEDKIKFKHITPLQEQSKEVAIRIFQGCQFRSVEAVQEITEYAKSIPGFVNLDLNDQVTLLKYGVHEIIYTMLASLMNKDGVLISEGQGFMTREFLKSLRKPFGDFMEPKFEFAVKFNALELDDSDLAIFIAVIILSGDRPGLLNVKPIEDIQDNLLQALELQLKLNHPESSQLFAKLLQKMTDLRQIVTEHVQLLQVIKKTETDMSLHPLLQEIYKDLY
Sequence of Peroxisome proliferator-activated receptor gamma/Nuclear receptor coactivator 2 (Q15596 whole entry, further chain): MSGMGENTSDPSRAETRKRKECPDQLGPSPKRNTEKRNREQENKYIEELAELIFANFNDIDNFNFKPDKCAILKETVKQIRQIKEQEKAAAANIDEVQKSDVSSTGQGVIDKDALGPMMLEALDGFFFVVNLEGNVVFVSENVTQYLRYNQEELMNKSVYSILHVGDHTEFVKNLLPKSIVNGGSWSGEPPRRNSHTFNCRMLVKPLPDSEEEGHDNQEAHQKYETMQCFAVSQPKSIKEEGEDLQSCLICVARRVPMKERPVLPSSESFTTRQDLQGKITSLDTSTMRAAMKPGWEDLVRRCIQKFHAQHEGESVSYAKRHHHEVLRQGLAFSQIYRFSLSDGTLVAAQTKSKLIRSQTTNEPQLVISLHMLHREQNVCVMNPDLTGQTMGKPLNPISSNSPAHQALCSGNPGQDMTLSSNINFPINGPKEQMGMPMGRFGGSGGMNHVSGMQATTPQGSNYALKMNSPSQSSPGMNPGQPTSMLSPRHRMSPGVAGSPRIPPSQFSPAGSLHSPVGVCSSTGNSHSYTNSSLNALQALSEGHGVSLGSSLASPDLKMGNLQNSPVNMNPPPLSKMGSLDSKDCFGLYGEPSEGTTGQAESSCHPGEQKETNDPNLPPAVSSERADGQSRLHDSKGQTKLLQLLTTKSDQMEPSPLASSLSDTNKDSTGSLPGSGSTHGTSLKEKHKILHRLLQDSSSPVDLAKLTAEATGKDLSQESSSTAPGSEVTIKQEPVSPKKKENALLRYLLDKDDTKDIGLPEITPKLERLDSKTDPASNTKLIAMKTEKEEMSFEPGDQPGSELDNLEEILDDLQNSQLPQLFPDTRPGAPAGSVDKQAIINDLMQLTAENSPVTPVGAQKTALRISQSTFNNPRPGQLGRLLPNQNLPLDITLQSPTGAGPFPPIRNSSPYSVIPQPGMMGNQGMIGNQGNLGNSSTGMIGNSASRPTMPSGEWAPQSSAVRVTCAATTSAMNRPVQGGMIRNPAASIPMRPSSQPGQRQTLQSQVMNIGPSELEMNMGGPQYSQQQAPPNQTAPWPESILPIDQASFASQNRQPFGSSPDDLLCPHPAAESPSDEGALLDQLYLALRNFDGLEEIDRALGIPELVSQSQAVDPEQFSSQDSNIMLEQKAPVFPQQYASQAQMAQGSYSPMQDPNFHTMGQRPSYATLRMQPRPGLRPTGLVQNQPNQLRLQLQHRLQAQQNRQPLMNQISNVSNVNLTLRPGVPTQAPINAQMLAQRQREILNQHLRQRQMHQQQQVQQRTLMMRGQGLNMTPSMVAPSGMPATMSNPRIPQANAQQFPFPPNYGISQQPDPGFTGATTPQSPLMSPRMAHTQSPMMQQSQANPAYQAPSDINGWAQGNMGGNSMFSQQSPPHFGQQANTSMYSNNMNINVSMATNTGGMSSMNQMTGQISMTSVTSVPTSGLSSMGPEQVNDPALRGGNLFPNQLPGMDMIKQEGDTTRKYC
Sequence of Peroxisome proliferator-activated receptor gamma/Nuclear receptor coactivator 3 (P37231 whole entry): as the sequence (P37231 whole entry) above
Sequence of Peroxisome proliferator-activated receptor gamma/Nuclear receptor coactivator 3 (Q9Y6Q9 whole entry, further chain): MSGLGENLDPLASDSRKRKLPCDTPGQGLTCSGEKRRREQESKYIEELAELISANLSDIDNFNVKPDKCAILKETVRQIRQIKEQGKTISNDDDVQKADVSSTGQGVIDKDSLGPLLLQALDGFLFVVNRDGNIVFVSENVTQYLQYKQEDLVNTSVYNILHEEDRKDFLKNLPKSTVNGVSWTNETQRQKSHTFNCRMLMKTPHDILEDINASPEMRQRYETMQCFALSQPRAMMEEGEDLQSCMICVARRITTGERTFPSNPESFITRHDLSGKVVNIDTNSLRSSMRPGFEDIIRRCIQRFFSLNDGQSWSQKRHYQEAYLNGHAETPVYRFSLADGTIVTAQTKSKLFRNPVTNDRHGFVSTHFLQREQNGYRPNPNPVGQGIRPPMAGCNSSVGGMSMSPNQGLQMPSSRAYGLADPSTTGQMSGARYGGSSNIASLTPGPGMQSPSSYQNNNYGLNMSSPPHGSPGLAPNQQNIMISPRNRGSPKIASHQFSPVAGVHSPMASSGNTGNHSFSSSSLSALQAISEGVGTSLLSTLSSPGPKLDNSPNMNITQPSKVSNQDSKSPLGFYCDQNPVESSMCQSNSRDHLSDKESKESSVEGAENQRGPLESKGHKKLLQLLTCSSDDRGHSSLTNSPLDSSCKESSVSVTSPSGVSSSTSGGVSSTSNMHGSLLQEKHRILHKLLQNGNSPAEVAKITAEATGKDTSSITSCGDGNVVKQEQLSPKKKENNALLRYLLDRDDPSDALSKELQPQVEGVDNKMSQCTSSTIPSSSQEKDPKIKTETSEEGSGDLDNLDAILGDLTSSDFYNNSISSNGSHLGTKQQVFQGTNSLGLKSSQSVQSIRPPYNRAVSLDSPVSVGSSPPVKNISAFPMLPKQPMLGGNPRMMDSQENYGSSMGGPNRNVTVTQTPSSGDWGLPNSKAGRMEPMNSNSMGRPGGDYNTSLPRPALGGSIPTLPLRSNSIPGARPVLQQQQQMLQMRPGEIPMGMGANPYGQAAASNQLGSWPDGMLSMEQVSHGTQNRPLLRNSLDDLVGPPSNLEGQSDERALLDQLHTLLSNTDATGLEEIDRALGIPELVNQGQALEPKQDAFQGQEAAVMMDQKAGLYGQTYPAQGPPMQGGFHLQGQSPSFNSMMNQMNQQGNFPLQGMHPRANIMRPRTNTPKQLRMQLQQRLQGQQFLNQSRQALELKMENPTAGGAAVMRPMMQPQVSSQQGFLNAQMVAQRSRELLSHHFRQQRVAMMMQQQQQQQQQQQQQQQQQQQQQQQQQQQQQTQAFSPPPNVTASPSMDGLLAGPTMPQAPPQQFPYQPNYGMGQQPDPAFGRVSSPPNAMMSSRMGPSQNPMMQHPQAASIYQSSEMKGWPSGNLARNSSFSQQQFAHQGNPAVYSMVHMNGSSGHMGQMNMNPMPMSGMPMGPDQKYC
Sequence of DNA topoisomerase (A0A2S9PM60 whole entry): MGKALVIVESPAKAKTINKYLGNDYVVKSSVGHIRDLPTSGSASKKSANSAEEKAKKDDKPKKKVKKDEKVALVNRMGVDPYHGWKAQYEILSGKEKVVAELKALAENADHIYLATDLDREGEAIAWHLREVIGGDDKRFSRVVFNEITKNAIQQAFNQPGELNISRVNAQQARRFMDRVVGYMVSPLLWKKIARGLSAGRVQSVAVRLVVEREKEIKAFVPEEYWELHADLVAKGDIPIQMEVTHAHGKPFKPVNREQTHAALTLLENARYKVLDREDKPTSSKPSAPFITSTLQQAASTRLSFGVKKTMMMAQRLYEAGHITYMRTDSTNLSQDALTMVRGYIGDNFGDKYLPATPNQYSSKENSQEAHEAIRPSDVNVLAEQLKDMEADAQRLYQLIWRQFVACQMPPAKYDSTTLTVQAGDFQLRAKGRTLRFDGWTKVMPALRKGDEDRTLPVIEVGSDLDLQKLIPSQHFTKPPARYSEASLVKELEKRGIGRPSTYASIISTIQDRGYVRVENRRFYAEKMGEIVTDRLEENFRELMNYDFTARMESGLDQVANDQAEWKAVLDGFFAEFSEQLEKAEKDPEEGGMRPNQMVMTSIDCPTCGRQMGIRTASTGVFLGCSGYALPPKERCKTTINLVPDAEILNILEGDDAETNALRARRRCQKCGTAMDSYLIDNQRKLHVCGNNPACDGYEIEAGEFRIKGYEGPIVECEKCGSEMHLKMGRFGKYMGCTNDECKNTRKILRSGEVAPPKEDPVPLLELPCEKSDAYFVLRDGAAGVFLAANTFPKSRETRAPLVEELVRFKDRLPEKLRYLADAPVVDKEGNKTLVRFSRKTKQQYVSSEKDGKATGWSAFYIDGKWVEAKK

Cc1cc(OCCn2nc(C(=O)O)c3ccccc3c2=O)ccc1C(C)C
AC50 (DNA topoisomerase): 3.68 µM (active)

[O-][N+]1=c2ccc(Nc3ccccc3)cc2=NC12CCCCC2
IC50 [1]: 48.2 µM (active) | AC50 [2]: > 380 µM (inactive) | EC50 [3]: > 150 µM (inactive) | EC50 [4]: 1.46 µM (active) | EC50 [5]: > 180 µM (inactive) | EC50 [6]: 14.9 µM (inactive) | IC50 [7]: 0.637 µM (active) | AC50 (INS1): 5.64 µM (active) | EC50 [8]: 146 µM (active) | EC50 [9]: 1.62 µM (active) | EC50 [10]: 1.9 µM (active) | EC50 [11]: 14.4 µM (not active) | CC50 (Vero): 18.6 µM (active) | EC50 [12]: > 79.4 µM (not active) | EC50 (Protein RecA): 4.37 µM (active)
